This passage reports IC50 and inhibition results from ChEMBL document CHEMBL4431308, “Structure and Configuration of Phosphoeleganin, a Protein Tyrosine Phosphatase 1B Inhibitor from the Mediterranean Ascidian Sidnyum elegans” (J Nat Prod, 2016).

Molecules are shown by their SMILES. Activity calls are given as the source filed them. The calls are words filed in the database; no cut-off is given here.

One assay relates to HaCaT. Briefly: Cytotoxicity against human HaCaT cells assessed as reduction in cell viability after 24 hrs by MTT assay. In kind it is cell-based. (In general: Tetrazolium assays rely on reduction of a dye to a coloured formazan, in cell work by metabolically active cells.)
The test system of the next assay is DU-145. Briefly: Cytotoxicity against human DU145 cells assessed as reduction in cell viability after 24 hrs by MTT assay. The format is cell-based. The following applies: DU-145, 24 h.
A further assay has as its system MCF7. Briefly: Cytotoxicity against human MCF7 cells assessed as reduction in cell viability after 24 hrs by MTT assay. The format is cell-based. The following applies: MCF7, 24 h.
The target in assay [1] is T1, Tyrosine-protein phosphatase non-receptor type 1 (Homo sapiens, UniProt P18031).
T1 sequence (P18031 whole entry): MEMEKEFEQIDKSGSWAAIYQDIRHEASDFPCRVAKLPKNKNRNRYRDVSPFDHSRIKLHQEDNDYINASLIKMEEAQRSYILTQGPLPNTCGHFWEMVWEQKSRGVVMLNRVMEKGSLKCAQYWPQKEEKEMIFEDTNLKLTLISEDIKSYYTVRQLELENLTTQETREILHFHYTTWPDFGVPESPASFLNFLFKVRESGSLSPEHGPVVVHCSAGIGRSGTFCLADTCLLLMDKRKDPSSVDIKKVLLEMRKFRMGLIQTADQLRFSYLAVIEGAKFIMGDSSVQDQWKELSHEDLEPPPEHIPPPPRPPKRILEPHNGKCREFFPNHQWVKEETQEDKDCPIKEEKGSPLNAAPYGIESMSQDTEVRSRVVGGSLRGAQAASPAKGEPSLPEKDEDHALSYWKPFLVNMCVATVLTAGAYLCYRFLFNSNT
Briefly: Inhibition of human recombinant PTP1B catalytic domain expressed in Escherichia coli strain BL21(DE3) using […] as substrate.

Assay [2] concerns the target Dual specificity tyrosine-phosphorylation-regulated kinase 1A (Homo sapiens) (UniProt Q13627). The experiment in a line: Inhibition of GST-fused human recombinant DYRK1A expressed in Escherichia coli using woodtide as substrate after 30 mins in presence of [gamma-33P]ATP by liquid scintillation counting.

Broadly, the IC50 is the concentration that inhibits the measured activity by half. Turning to `CCCCCCCCCCCCCC[C@@H](OP(=O)(O)O)[C@@H](O)CCCO`, the IC50 is above 10 µM with HaCaT, above 10 µM in the assay with DU-145, above 10 µM in the assay on MCF7 and 24 µM in assay [1]. In addition, in assay [2], the inhibition result is “inactive”.
`CCCCCCCCCCCCCC[C@@H](OP(=O)(O)O)[C@@H](O)CC[C@@H](O)[C@@H](O)CC[C@@H](O)CCCCCCC(=O)NCC(=O)O`: the IC50 was above 10 µM in the assay on HaCaT, above 10 µM in the assay on DU-145, above 10 µM with MCF7 and 11 µM in assay [1]. For the same compound, in assay [2], the inhibition result is “inactive”.
With `O=C(O)CNC(=O)CCCCCC[C@H](O)CCCO`, the IC50 in the assay on HaCaT was above 10 µM; in the assay on DU-145, above 10 µM; with MCF7, above 10 µM; in assay [1], 28 µM. In addition, the inhibition result in assay [2] is “inactive”.
